Data as given in PMC4676015, “Variant fatty acid-like molecules Conjugation, novel approaches for extending the stability of therapeutic peptides” (Scientific Reports, 2015).

What follows are compounds tested against T1, GLP-1 receptor (GLP-1R) (Rattus norvegicus, UniProt P32301) (assay: GLP-1 receptor binding assay (cellular ELISA)).
T1 construct: endogenous in cells; host or cells: rat INS-1 cells
T1 sequence (P32301 22-463): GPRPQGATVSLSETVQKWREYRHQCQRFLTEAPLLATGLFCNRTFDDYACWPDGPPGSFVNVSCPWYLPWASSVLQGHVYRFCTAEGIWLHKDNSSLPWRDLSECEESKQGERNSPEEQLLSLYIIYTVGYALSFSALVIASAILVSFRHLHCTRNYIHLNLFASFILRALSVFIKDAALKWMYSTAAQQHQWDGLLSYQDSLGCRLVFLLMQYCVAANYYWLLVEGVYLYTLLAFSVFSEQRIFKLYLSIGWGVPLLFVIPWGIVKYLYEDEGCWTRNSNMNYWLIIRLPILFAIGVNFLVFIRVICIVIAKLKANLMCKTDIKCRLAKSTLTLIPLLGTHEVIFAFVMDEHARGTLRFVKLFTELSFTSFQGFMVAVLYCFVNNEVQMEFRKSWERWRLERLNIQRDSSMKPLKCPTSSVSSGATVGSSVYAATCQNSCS
Experimental: Cells were rinsed with PBS and fixed with 4% paraformaldehyde (Thermo Scientific) for 10 min at room temperature and quenched for 5 min with 2% glycine in PBS, pH 7.5. […] After a 2 h incubation at 37 °C in a final volume of 100 μl, the excess peptides were washed, and the cells were blocked with 5% BSA (BD Biosciences). […] Colorimetric changes were analyzed by reading the absorbance at 450 nm in a SpectraMax M5 (Molecular Device) microplate reader. The peptide concentration was plotted against UV absorbance, and the Kd was calculated using Origin 7.0 software.

Kd [nM]	SMILES
104 ± 3.42	CCCCCCCCNC(=O)CC[C@H](NC(=O)[C@H](C)NC(=O)[C@@H](N)Cc1c[nH]cn1)C(=O)NCC(=O)N[C@H](C(=O)N[C@@H](Cc1ccccc1)C(=O)N[C@H](C(=O)N[C@@H](CO)C(=O)N[C@@H](CC(=O)O)C(=O)N[C@H](C(=O)N[C@@H](CO)C(=O)N[C@@H](CO)C(=O)N[C@@H](Cc1ccc(O)cc1)C(=O)N[C@@H](CC(C)C)C(=O)N[C@@H](CCC(=O)O)C(=O)NCC(=O)N[C@@H](CCC(N)=O)C(=O)N[C@@H](C)C(=O)N[C@@H](C)C(=O)N[C@@H](CCCCN)C(=O)N[C@@H](CCC(=O)O)C(=O)N[C@@H](Cc1ccccc1)C(=O)N[C@H](C(=O)N[C@@H](C)C(=O)N[C@@H](Cc1c[nH]c2ccccc12)C(=O)N[C@@H](CC(C)C)C(=O)N[C@H](C(=O)N[C@@H](CCCCN)C(=O)NCC(=O)N[C@@H](CCCNC(=N)N)C(=O)NCC(=O)O)C(C)C)[C@@H](C)CC)C(C)C)[C@@H](C)O)[C@@H](C)O [compound 7]
96.7 ± 2.95	CCCCCCCCCCCCNC(=O)CC[C@H](NC(=O)[C@H](C)NC(=O)[C@@H](N)Cc1c[nH]cn1)C(=O)NCC(=O)N[C@H](C(=O)N[C@@H](Cc1ccccc1)C(=O)N[C@H](C(=O)N[C@@H](CO)C(=O)N[C@@H](CC(=O)O)C(=O)N[C@H](C(=O)N[C@@H](CO)C(=O)N[C@@H](CO)C(=O)N[C@@H](Cc1ccc(O)cc1)C(=O)N[C@@H](CC(C)C)C(=O)N[C@@H](CCC(=O)O)C(=O)NCC(=O)N[C@@H](CCC(N)=O)C(=O)N[C@@H](C)C(=O)N[C@@H](C)C(=O)N[C@@H](CCCCN)C(=O)N[C@@H](CCC(=O)O)C(=O)N[C@@H](Cc1ccccc1)C(=O)N[C@H](C(=O)N[C@@H](C)C(=O)N[C@@H](Cc1c[nH]c2ccccc12)C(=O)N[C@@H](CC(C)C)C(=O)N[C@H](C(=O)N[C@@H](CCCCN)C(=O)NCC(=O)N[C@@H](CCCNC(=N)N)C(=O)NCC(=O)O)C(C)C)[C@@H](C)CC)C(C)C)[C@@H](C)O)[C@@H](C)O [compound 8]
99.74 ± 0.92	CCCCCCCCCCCCCCCCNC(=O)CC[C@H](NC(=O)[C@H](C)NC(=O)[C@@H](N)Cc1c[nH]cn1)C(=O)NCC(=O)N[C@H](C(=O)N[C@@H](Cc1ccccc1)C(=O)N[C@H](C(=O)N[C@@H](CO)C(=O)N[C@@H](CC(=O)O)C(=O)N[C@H](C(=O)N[C@@H](CO)C(=O)N[C@@H](CO)C(=O)N[C@@H](Cc1ccc(O)cc1)C(=O)N[C@@H](CC(C)C)C(=O)N[C@@H](CCC(=O)O)C(=O)NCC(=O)N[C@@H](CCC(N)=O)C(=O)N[C@@H](C)C(=O)N[C@@H](C)C(=O)N[C@@H](CCCCN)C(=O)N[C@@H](CCC(=O)O)C(=O)N[C@@H](Cc1ccccc1)C(=O)N[C@H](C(=O)N[C@@H](C)C(=O)N[C@@H](Cc1c[nH]c2ccccc12)C(=O)N[C@@H](CC(C)C)C(=O)N[C@H](C(=O)N[C@@H](CCCCN)C(=O)NCC(=O)N[C@@H](CCCNC(=N)N)C(=O)NCC(=O)O)C(C)C)[C@@H](C)CC)C(C)C)[C@@H](C)O)[C@@H](C)O [compound 9]
88.3 ± 3.27	CCCCCCCCNC(=O)C[C@H](NC(=O)[C@H](CO)NC(=O)[C@@H](NC(=O)[C@H](Cc1ccccc1)NC(=O)[C@@H](NC(=O)CNC(=O)[C@H](CCC(=O)O)NC(=O)[C@H](C)NC(=O)[C@@H](N)Cc1c[nH]cn1)[C@@H](C)O)[C@@H](C)O)C(=O)N[C@H](C(=O)N[C@@H](CO)C(=O)N[C@@H](CO)C(=O)N[C@@H](Cc1ccc(O)cc1)C(=O)N[C@@H](CC(C)C)C(=O)N[C@@H](CCC(=O)O)C(=O)NCC(=O)N[C@@H](CCC(N)=O)C(=O)N[C@@H](C)C(=O)N[C@@H](C)C(=O)N[C@@H](CCCCN)C(=O)N[C@@H](CCC(=O)O)C(=O)N[C@@H](Cc1ccccc1)C(=O)N[C@H](C(=O)N[C@@H](C)C(=O)N[C@@H](Cc1c[nH]c2ccccc12)C(=O)N[C@@H](CC(C)C)C(=O)N[C@H](C(=O)N[C@@H](CCCCN)C(=O)NCC(=O)N[C@@H](CCCNC(=N)N)C(=O)NCC(=O)O)C(C)C)[C@@H](C)CC)C(C)C [compound 10]

Continued, compound first:

SMILES	Kd [nM]
CCCCCCCC(=O)NCCCC[C@H](NC(=O)[C@H](C)NC(=O)[C@H](C)NC(=O)[C@H](CCC(N)=O)NC(=O)CNC(=O)[C@H](CCC(=O)O)NC(=O)[C@H](CC(C)C)NC(=O)[C@H](Cc1ccc(O)cc1)NC(=O)[C@H](CO)NC(=O)[C@H](CO)NC(=O)[C@@H](NC(=O)[C@H](CC(=O)O)NC(=O)[C@H](CO)NC(=O)[C@@H](NC(=O)[C@H](Cc1ccccc1)NC(=O)[C@@H](NC(=O)CNC(=O)[C@H](CCC(=O)O)NC(=O)[C@H](C)NC(=O)[C@@H](N)Cc1c[nH]cn1)[C@@H](C)O)[C@@H](C)O)C(C)C)C(=O)N[C@@H](CCC(=O)O)C(=O)N[C@@H](Cc1ccccc1)C(=O)N[C@H](C(=O)N[C@@H](C)C(=O)N[C@@H](Cc1c[nH]c2ccccc12)C(=O)N[C@@H](CC(C)C)C(=O)N[C@H](C(=O)N[C@@H](CCCCN)C(=O)NCC(=O)N[C@@H](CCCNC(=N)N)C(=O)NCC(=O)O)C(C)C)[C@@H](C)CC [compound 1]	36.2 ± 0.95
CCCCCCCCCCCC(=O)NCCCC[C@H](NC(=O)[C@H](C)NC(=O)[C@H](C)NC(=O)[C@H](CCC(N)=O)NC(=O)CNC(=O)[C@H](CCC(=O)O)NC(=O)[C@H](CC(C)C)NC(=O)[C@H](Cc1ccc(O)cc1)NC(=O)[C@H](CO)NC(=O)[C@H](CO)NC(=O)[C@@H](NC(=O)[C@H](CC(=O)O)NC(=O)[C@H](CO)NC(=O)[C@@H](NC(=O)[C@H](Cc1ccccc1)NC(=O)[C@@H](NC(=O)CNC(=O)[C@H](CCC(=O)O)NC(=O)[C@H](C)NC(=O)[C@@H](N)Cc1c[nH]cn1)[C@@H](C)O)[C@@H](C)O)C(C)C)C(=O)N[C@@H](CCC(=O)O)C(=O)N[C@@H](Cc1ccccc1)C(=O)N[C@H](C(=O)N[C@@H](C)C(=O)N[C@@H](Cc1c[nH]c2ccccc12)C(=O)N[C@@H](CC(C)C)C(=O)N[C@H](C(=O)N[C@@H](CCCCN)C(=O)NCC(=O)N[C@@H](CCCNC(=N)N)C(=O)NCC(=O)O)C(C)C)[C@@H](C)CC [compound 2]	39.9 ± 1.27
CCCCCCCCCCCCCCCC(=O)NCCCC[C@H](NC(=O)[C@H](C)NC(=O)[C@H](C)NC(=O)[C@H](CCC(N)=O)NC(=O)CNC(=O)[C@H](CCC(=O)O)NC(=O)[C@H](CC(C)C)NC(=O)[C@H](Cc1ccc(O)cc1)NC(=O)[C@H](CO)NC(=O)[C@H](CO)NC(=O)[C@@H](NC(=O)[C@H](CC(=O)O)NC(=O)[C@H](CO)NC(=O)[C@@H](NC(=O)[C@H](Cc1ccccc1)NC(=O)[C@@H](NC(=O)CNC(=O)[C@H](CCC(=O)O)NC(=O)[C@H](C)NC(=O)[C@@H](N)Cc1c[nH]cn1)[C@@H](C)O)[C@@H](C)O)C(C)C)C(=O)N[C@@H](CCC(=O)O)C(=O)N[C@@H](Cc1ccccc1)C(=O)N[C@H](C(=O)N[C@@H](C)C(=O)N[C@@H](Cc1c[nH]c2ccccc12)C(=O)N[C@@H](CC(C)C)C(=O)N[C@H](C(=O)N[C@@H](CCCCN)C(=O)NCC(=O)N[C@@H](CCCNC(=N)N)C(=O)NCC(=O)O)C(C)C)[C@@H](C)CC [compound 3]	33.8 ± 1.21
CCCCCCCC(=O)NCCCC[C@H](NC(=O)[C@@H](NC(=O)[C@H](CC(C)C)NC(=O)[C@H](Cc1c[nH]c2ccccc12)NC(=O)[C@H](C)NC(=O)[C@@H](NC(=O)[C@H](Cc1ccccc1)NC(=O)[C@H](CCC(=O)O)NC(=O)[C@H](CCCCN)NC(=O)[C@H](C)NC(=O)[C@H](C)NC(=O)[C@H](CCC(N)=O)NC(=O)CNC(=O)[C@H](CCC(=O)O)NC(=O)[C@H](CC(C)C)NC(=O)[C@H](Cc1ccc(O)cc1)NC(=O)[C@H](CO)NC(=O)[C@H](CO)NC(=O)[C@@H](NC(=O)[C@H](CC(=O)O)NC(=O)[C@H](CO)NC(=O)[C@@H](NC(=O)[C@H](Cc1ccccc1)NC(=O)[C@@H](NC(=O)CNC(=O)[C@H](CCC(=O)O)NC(=O)[C@H](C)NC(=O)[C@@H](N)Cc1c[nH]cn1)[C@@H](C)O)[C@@H](C)O)C(C)C)[C@@H](C)CC)C(C)C)C(=O)NCC(=O)N[C@@H](CCCNC(=N)N)C(=O)NCC(=O)O [compound 4]	15.4 ± 0.67
CCCCCCCCCCCC(=O)NCCCC[C@H](NC(=O)[C@@H](NC(=O)[C@H](CC(C)C)NC(=O)[C@H](Cc1c[nH]c2ccccc12)NC(=O)[C@H](C)NC(=O)[C@@H](NC(=O)[C@H](Cc1ccccc1)NC(=O)[C@H](CCC(=O)O)NC(=O)[C@H](CCCCN)NC(=O)[C@H](C)NC(=O)[C@H](C)NC(=O)[C@H](CCC(N)=O)NC(=O)CNC(=O)[C@H](CCC(=O)O)NC(=O)[C@H](CC(C)C)NC(=O)[C@H](Cc1ccc(O)cc1)NC(=O)[C@H](CO)NC(=O)[C@H](CO)NC(=O)[C@@H](NC(=O)[C@H](CC(=O)O)NC(=O)[C@H](CO)NC(=O)[C@@H](NC(=O)[C@H](Cc1ccccc1)NC(=O)[C@@H](NC(=O)CNC(=O)[C@H](CCC(=O)O)NC(=O)[C@H](C)NC(=O)[C@@H](N)Cc1c[nH]cn1)[C@@H](C)O)[C@@H](C)O)C(C)C)[C@@H](C)CC)C(C)C)C(=O)NCC(=O)N[C@@H](CCCNC(=N)N)C(=O)NCC(=O)O [compound 5]	14.3 ± 1.1
